The text below walks through data of patent publication US20050239873A1 (priority 1999, published 2005).

Broadly, the AUC is concentration integrated over time. Low values mean low exposure, high ones high exposure. Broadly, the Cmax is the highest concentration seen after dosing. By MRT is commonly meant the average time that molecules of a dose stay in the body. The term half-life denotes the time needed for the level to fall by half in the phase considered. A high value points to slow decline.

Several values for one entry are separate records, joined by “and”; a condition that tells them apart may be missing. Equal values may be shown once.

The test system of series [1] is RPMI-8226 cells. In words: Mitochondrial membrane potential (safranin O). The format is cell-based, human. As for the experimental part:
RPMI-8226 cells (2×10^7) were resuspended in buffer containing 130 mM KCl, 5 mM malate, 5 mM glutamate, 2 mM KPO4, 5 mM HEPES, pH 7.0 with 5 μM safranin O dye, in a stirred cuvette at 28° C. Fluorescence was measured at 495 nm excitation, 586 nm emission on a RF-5301PC spectrofluorophotometer (Shimadzu, Japan). Safranin O fluorescence was quenched following addition of 0.0025% digitonin as the dye accumulates in active mitochondria (Fiskum et al., Methods Enzymol. 322:222-234, 2000). Depolarization of the mitochondrial inner membrane caused a shift of safranin O localization from mitochondria to cytoplasm, evident as increased fluorescence.

A short description of series [2]: Pharmacokinetic evaluation in male CD2F1 mice. The format is in vivo, mouse. How it is done: To determine the pharmacokinetics of 2-OMe antimycin A1 in male CD2F1 mice, groups of three were dosed either intravenously (tail vein) or intraperitoneally with 2-OMe antimycin A1 (20 mg/kg) in a vehicle of Cremaphor (5%) and ethanol (5%) in 0.9% saline. For both dosing routes, the volume administered was 5 ml/kg body weight. At various times, samples were collected by cardiac puncture into tubes containing NaF/EDTA (dry powders).
Pharmacokinetic values were derived with WinNonlin® software (Mountain View, Calif.).

Series [3] has as its system RPMI-8226 cells. Particulars: suboptimal combinations with etoposide or melphalan. How it is done:
Current anti-myeloma regimens incorporate multiple drugs with different mechanisms of action. RPMI-8226 cells were treated with 2-OMeA1 in combination with standard chemotherapeutic agents used in myeloma treatment: etoposide, melphalan, or daunorubicin (Sonneveld and Segeren, Eur. J. Cancer 39:9-18, 2003).

Series [4] in a line: Stability in solution at pH 7.4 (no S9). The format is physicochemical. The following applies: pH 7.4, absence of S9 proteins.
Another series can be described thus: S9 metabolism. The format is in vitro ADME. The following applies: male, hepatic S9 fraction, pH 7.4; for half-life at 500 ng/ml: 37° C. The source says:
All chemicals and solvents used for sample preparation and HPLC analysis were analytical grade. Acetonitrile, methanol, and phosphoric acid were purchased from Fisher Scientific (Atlanta, Ga.). Hepatic S9 fractions from male CD2F1 mice, male Sprague Dawley rats, male dogs, and male humans were purchased from In Vitro Technologies (Boston, Mass.). The National Cancer Institute provided samples of the test compounds and male CD2F1 mice. Fischer 344 rats with implanted jugular cannulas were obtained from Charles River Laboratories (Cambridge, Mass.). All animal use and care procedures were approved by the Institutional Committee on Animal Use and Care at the University of Alabama at Birmingham and conformed to the guidelines found in Guide for the Care and Use of Laboratory Animals, National Academy Press, 1996.
To evaluate metabolism of the test compounds by S9 fractions from various species, reaction systems maintained at 37° C. contained 2-OMe-A3 (500 ng/ml) and S9 (1 mg protein/ml) in 100 mM Tris buffer (pH 7.4). At selected times, triplicate portions of the mixtures were removed and processed for analysis, as described above.

Series [5] has as its system mitochondria from TABX2S cells. The experiment in a line: Swelling of isolated mitochondria (absorbance at 540 nm). Also noted: species or system murine. Particulars: 2 μg/ml. The source says:
Mitochondrial PT is caused by opening of a large conductance channel in the inner mitochondrial membrane. Opening of a large conductance channel allows free distribution of solutes of less than 1,500 Da and results in dissipation of the proton gradient and osmotic swelling of mitochondria due to the higher solute concentration in the matrix. In isolated mitochondria, the colloid osmotic swelling associated with PT pore opening can be followed by measuring the optical density change at 540 nm (Kantrow et al., Biochem. Biophy. Res. Comm. 232:669-671, 1997).
Briefly, mitochondria were isolated from TABX2S cultured cells by a modification of the procedure of Maltese et al. (J. Biol. Chem. 260:11524-11529, 1985). Typically, 0.5 to 1×10^8 cells were harvested and washed once with homogenization buffer (250 mM sucrose, 10 mM Tris-HCl, 1 mM EDTA and 1 mg/ml BSA, (pH 7.4)). The cell suspension was exposed to nitrogen at 250 psi for 30 minutes in a “cell disruption bomb” (Parr, Moline, Ill.) or homogenized in a Dounce homogenizer with a loose-fitting pestle until >90% of cells were broken. The homogenate was centrifuged at 800×g for 10 minutes. The supernatant was removed and centrifuged at 10,000×g for 10 minutes at 4° C. The pellet was resuspended and again centrifuged at 10,000×g for 10 minutes. […]

The test system of the next series is TAMH.neo control cells. In words: Cellular respiration by oximetry. In kind it is cell-based, murine. Particulars: higher concentrations (above 1 μg/ml). How it is done: (§1) Briefly, TABX2S cells (over-expressing Bcl-xL) and control cells (TAMH.neo) were suspended in air-equilibrated complete medium at a density of 3 million cells per milliliter and placed in a thermostatted electrode chamber at 37° C.

A further series deals with TABX2S cells. In words: Cellular respiration by oximetry. In kind it is cell-based, murine. Particulars: higher concentrations (above 1 μg/ml). How it is done: as §1
Series [6] deals with TAMH cells that over-express Bcl-2. In words: Sensitivity of Bcl-2 over-expressing cells to antimycin A. The following applies: vs control cells. The format is cell-based, murine.
The test system of another series is AML-12.Bcl-xL cells. The experiment in a line: Sensitivity of non-tumorigenic liver cells to antimycin A. In kind it is cell-based, mouse. The following applies: vs AML-12 control transfectants. From the text: The effects of BCl-xL over-expression on non-tumorigenic cells was also examined. […] Briefly, AML-12 cells were transfected as described above with pSFFV.Bcl-xL(sense) and pSFFV.neo. AML-12-pSFFV. Bcl-xL(sense) cells expressed approximately 3 to 4 fold higher BCl-xL protein levels than did AML-12 cells transfected with the control plasmid, pSFFV.neo, when assayed by Western blot analysis.

For 2-methoxy antimycin A [2-OMeA], the “acute changes in mitochondrial membrane potential” value with RPMI-8226 cells [1] was “No acute changes”.

Turning to `CCCCCC[C@H]1C(=O)O[C@H](C)[C@H](NC(=O)c2cccc(NC=O)c2OC)C(=O)O[C@@H](C)[C@@H]1OC(=O)CC(C)C` [2-OMeA1, 2-methoxy antimycin A1], in series [2] (Intraperitoneal dose 20 mg/kg), the area under the curve (AUC) was found to be 2410 ng·h/mL, the maximum concentration (Cmax) came out at 483 ng/mL, the MRT is given as 474 min and the T1/2 is given as 183 min. In [2] (Intravenous dose 20 mg/kg), this molecule yielded an AUC of 3720 ng·h/mL, a Cmax of 8000 ng/mL and an MRT of 27.6 min. In addition, in [2] (Intravenous dose 20 mg/kg, 20 mg/kg), the T1/2 was 19 min and 19.2 min. For the same molecule, in series [2] (intraperitoneal 20 mg/kg), the “plasma concentration at 24 hr after dosing” value stood at 18 ng/mL and the “time of maximum plasma level” value is on record as 30 min. In [2] (intravenous 20 mg/kg), the “plasma concentration at 30 min after dosing” value was found to be 1040 ng/mL, the “plasma concentration at 30 min as share of that at 5 min” value was “about 15%” and the “plasma concentration at 24 hr after dosing” value is 15 ng/mL. Further, the killing in combination entry with RPMI-8226 cells [3] is on record as “Supra-additive killing”.

Turning to `CCCC[C@H]1C(=O)OC(C)[C@H](NC(=O)c2cccc(NC=O)c2OC)C(=O)O[C@@H](C)C1OC(=O)CC(C)C` (stereo partly drawn) [2-OMeA3, Antimycin A3 methyl ether], the stability in solution entry in series [4] was “not stable”. Moreover, the half-life at 2000 ng/ml in “S9 metabolism” (CD2F1, mouse) was over 5 min; in “S9 metabolism” (Sprague Dawley, rat), over 5 min; in the series “S9 metabolism” (dog), over 5 min. In addition, the half-life at 500 ng/ml in the series “S9 metabolism” (CD2F1, mouse) is over 5 min; in the series “S9 metabolism” (Sprague Dawley, rat), over 5 min; in “S9 metabolism” (dog) it was over 5 min.

As to antimycin A, the mitochondrial swelling entry in series [5] is “caused mitochondrial swelling”. In addition, the oxygen consumption entry in the series with TAMH.neo control cells is “almost completely inhibited”. For the same molecule, the “basal oxygen consumption maintained” value in the series with TABX2S cells is reported as “about 20%”. Besides, the “sensitivity to antimycin A” value in series [6] is reported as “more sensitive”; with AML-12.Bcl-xL cells, “increased sensitivity”.
